From patent US4935422A, “Acyloxypropanolamines” (E. I. Du Pont de Nemours and Company, priority 1988, dated 1990)

target: β-adrenergic receptors (guinea pig right atria and guinea pig tracheal strips); test: Beta-blocking activity in vitro: guinea pig right atria and tracheal strips, shift of isoproterenol concentration-response curves (pA2); details: β-blockade of isoproterenol response, 60-minute incubation, 37 °C; pA2 (-log KB) by method of Furchgott; tissue (atria or trachea) not stated in Table 1
Procedure: Several of the compounds of the present invention were tested for β-blocking activity in vitro using guinea pig right atria and guinea pig tracheal strips mounted in a tissue bath containing oxygenated (95% O2 -5% CO2) Krebs physiological salt solution at 37° C. Each tissue was suspended between a fixed glass rod and a Statham Universal Transducer connected to a Beckman recorder. Atria were allowed to beat spontaneously under a loading tension of approximately 0.5 gm. Intrinsic depressant or stimulant activity was determined for each compound by progressively increasing concentrations in the tissue baths at 60-minute intervals. Tissues were not washed between increments. The maximum concentration showing little or no cardiodepressant activity was chosen for blockade experiments. Changes in rate in response to isoproterenol, a standard β-receptor agonist, were measured in the absence and presence of test compounds. Spiral strips of guinea pig trachea were suspended under 5 gm resting tension and incubated with phentolamine, tropolone and cocaine. Active tension was generated by addition of carbachol (3.0×10^-7 M) and decreases in tension in response to isoproterenol were quantitated. Cumulative concentration-response curves were produced with isoproterenol both before and after 60-minute incubation of test compounds with atria and trachea. Compounds with β-blocking activity shifted concentration-response curves to the right. The blocking potency of test compounds was estimated by computing pA2 values (-log […]) by the method of Furchgott, the Pharmacological Differentiation of Adrenergic Receptors, Ann. N.Y. Acad. Sci., 139:553-570 (1967). […] The degree of cardioselectivity was estimated from the ratio, kβ trachea/Kβ atria (10^(pA.sbsp.2^atria-pA.sbsp.2^trachea)). A ratio greater than one indicates cardioselectivity. Test drugs were dissolved in distilled water and added to the bath (30 mL) in a volume of 10 or 100 μL. All of the test compounds are active β-blockers. [drawing 10]

Point of comparison: `CC(C)C(=O)NCC(C)(C)NCC(O)COC(=O)C1=CCCC1` (stereo not shown) [Compound 8], pA2 7.6. Against it:
- CC(C)(C)NCC(O)COC(=O)C1CC1 (stereo not shown) [Compound 2] — lower, 6.5
- CC(C)(C)NCC(O)COC(=O)C(C)(C)C (stereo not shown) [Compound 3] — lower, 5.3
- CC(C)(C)NCC(O)COC(=O)C1CCC1 (stereo not shown) [Compound 4] — lower, 5.0
- CC(C)C(=O)NCC(C)(C)NCC(O)COC(=O)C(C)(C)C (stereo not shown) [Compound 5] — lower, 6.5
- CC(C)C(=O)NCC(C)(C)NCC(O)COC(=O)C1CCC1 (stereo not shown) [Compound 7] — lower, 6.5
- CC(C)C(=O)NCC(C)(C)NCC(O)COC(=O)C1CC=CCC1 (stereo not shown) [Compound 9] — lower, 6.9
- CC(C)(CNC(=O)N1CCCCC1)NCC(O)COC(=O)C1CC1 (stereo not shown) [Compound 10] — higher, 8.1
- CC(C)(CNC(=O)N1CCOCC1)NCC(O)COC(=O)C1CC1 (stereo not shown) [Compound 11] — higher, 8.0
- CC(C)(CNC(=O)C1CCOC1)NCC(O)COC(=O)/C=C/c1ccccc1 (stereo not shown) [Compound 12] — lower, 7.3
